From ChEMBL document CHEMBL3621112, “Computationally motivated synthesis and enzyme kinetic evaluation of N-(-d-glucopyranosyl)-1,2,4-triazolecarboxamides as glycogen phosphorylase inhibitors” (Medchemcomm, 2015)

Legend:
[1] = target: T1, Glycogen phosphorylase, muscle form (Oryctolagus cuniculus, UniProt P00489); experiment: Inhibition of glycogen phosphorylase b in rabbit skeletal muscle using glycogen substrate and glucose-1-phosphate by Lineweaver-Burk plot method
T1 sequence (P00489 whole entry): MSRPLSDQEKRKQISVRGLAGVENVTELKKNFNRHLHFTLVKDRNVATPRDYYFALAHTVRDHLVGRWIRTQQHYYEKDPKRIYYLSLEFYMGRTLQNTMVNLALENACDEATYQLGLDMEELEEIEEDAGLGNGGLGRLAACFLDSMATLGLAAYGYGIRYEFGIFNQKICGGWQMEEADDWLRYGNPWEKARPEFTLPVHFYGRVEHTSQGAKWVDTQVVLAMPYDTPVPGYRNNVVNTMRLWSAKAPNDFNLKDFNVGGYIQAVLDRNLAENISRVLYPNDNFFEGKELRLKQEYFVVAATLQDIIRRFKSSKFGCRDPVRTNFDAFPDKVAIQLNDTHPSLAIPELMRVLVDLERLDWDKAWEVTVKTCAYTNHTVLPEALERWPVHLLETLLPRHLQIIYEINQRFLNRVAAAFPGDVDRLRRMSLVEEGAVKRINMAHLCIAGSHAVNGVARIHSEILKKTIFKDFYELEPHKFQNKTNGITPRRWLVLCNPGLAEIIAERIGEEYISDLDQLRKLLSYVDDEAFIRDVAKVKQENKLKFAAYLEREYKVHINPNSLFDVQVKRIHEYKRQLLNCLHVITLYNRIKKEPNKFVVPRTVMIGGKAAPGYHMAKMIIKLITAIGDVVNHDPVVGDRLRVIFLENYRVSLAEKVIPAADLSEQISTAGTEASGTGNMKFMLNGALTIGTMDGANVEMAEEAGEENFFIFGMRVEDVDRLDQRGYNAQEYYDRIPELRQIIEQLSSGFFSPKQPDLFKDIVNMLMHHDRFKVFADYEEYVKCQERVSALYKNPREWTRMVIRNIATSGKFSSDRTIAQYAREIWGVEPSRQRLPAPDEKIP

[2] = Inhibition of glycogen phosphorylase (unknown origin); parameters: species or system Homo sapiens

Structure (SMILES) | Ki [1] | Ki ([1]; read-out: Ki) [µM] | Ki [2] [µM]
O=C(N[C@@H]1O[C@H](CO)[C@@H](O)[C@H](O)[C@H]1O)c1noc(-c2ccc3ccccc3c2)n1 | Not Active | – | –
O=C(N[C@@H]1O[C@H](CO)[C@@H](O)[C@H](O)[C@H]1O)c1nc(-c2ccc3ccccc3c2)no1 | Not Active | – | –
O=C(N[C@@H]1O[C@H](CO)[C@@H](O)[C@H](O)[C@H]1O)c1nnc(-c2ccccc2)[nH]1 | – | 1 | –
O=C(N[C@@H]1O[C@H](CO)[C@@H](O)[C@H](O)[C@H]1O)c1nnc(-c2ccc3ccccc3c2)[nH]1 | – | 9.2 | –
O=C(NC(=O)c1ccc2ccccc2c1)N[C@@H]1O[C@H](CO)[C@@H](O)[C@H](O)[C@H]1O | – | – | 0.35
